The target in experiment [1] is T1, HiBit-BRM fusion protein (Homo sapiens, UniProt P51531).
T1 construct: expressed in transfected cells
In words: HiBiT-BRM cell-based degradation assay (Nano-Glo HiBiT Lytic Detection). The settings on record: stable HeLa cell line expressing HiBiT-BRM, 24 h incubation; for BRM HiBit Degradation Maximum (%): top dose 30 μM; for DC50: read-out: BRM HiBit Degradation IC50. Summed up:
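Percent BRM loss was derived from HiBiT luminescence relative to DMSO-treated cells and cells given 2 μM of a known BRM/BRG1 degrader. Treatment lasted 24 h in HiBiT-BRM HeLa cells, with a top final concentration of 30 μM.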
(With HiBiT, luminescence reflects the tagged protein that the partner subunit can reach.)

The target in experiment [2] is T2, HiBit-BRG1 fusion protein (Homo sapiens, UniProt P51532).
T2 construct: expressed in transfected cells
Put plainly: HiBiT-BRG1 cell-based degradation assay (Nano-Glo HiBiT Lytic Detection). The settings on record: stable HeLa cell line expressing HiBit-BRG1 and LgBit, 24 h incubation; for Dmax: top dose 30 μM, read-out: BRG1 HiBit Degradation Maximum (%); for DC50: read-out: BRMG1 HiBit Degradation IC50. Summed up:
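Degradation was scored from HiBiT lytic luminescence, scaled between DMSO-treated wells and wells given 2 μM of a standard BRM/BRG1 degrader. Cells were a stable HeLa HiBiT-BRG1/LgBiT line dosed for 24 h, ten concentrations in 3-fold steps from 30 μM, in duplicate.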

Consider 14 molecules from patent US20240376121A1, “COMPOUNDS AND USES THEREOF” (Foghorn Therapeutics Inc., priority 2021, published 2024).

T2 sequence (P51532 whole entry, the tested form may be a part): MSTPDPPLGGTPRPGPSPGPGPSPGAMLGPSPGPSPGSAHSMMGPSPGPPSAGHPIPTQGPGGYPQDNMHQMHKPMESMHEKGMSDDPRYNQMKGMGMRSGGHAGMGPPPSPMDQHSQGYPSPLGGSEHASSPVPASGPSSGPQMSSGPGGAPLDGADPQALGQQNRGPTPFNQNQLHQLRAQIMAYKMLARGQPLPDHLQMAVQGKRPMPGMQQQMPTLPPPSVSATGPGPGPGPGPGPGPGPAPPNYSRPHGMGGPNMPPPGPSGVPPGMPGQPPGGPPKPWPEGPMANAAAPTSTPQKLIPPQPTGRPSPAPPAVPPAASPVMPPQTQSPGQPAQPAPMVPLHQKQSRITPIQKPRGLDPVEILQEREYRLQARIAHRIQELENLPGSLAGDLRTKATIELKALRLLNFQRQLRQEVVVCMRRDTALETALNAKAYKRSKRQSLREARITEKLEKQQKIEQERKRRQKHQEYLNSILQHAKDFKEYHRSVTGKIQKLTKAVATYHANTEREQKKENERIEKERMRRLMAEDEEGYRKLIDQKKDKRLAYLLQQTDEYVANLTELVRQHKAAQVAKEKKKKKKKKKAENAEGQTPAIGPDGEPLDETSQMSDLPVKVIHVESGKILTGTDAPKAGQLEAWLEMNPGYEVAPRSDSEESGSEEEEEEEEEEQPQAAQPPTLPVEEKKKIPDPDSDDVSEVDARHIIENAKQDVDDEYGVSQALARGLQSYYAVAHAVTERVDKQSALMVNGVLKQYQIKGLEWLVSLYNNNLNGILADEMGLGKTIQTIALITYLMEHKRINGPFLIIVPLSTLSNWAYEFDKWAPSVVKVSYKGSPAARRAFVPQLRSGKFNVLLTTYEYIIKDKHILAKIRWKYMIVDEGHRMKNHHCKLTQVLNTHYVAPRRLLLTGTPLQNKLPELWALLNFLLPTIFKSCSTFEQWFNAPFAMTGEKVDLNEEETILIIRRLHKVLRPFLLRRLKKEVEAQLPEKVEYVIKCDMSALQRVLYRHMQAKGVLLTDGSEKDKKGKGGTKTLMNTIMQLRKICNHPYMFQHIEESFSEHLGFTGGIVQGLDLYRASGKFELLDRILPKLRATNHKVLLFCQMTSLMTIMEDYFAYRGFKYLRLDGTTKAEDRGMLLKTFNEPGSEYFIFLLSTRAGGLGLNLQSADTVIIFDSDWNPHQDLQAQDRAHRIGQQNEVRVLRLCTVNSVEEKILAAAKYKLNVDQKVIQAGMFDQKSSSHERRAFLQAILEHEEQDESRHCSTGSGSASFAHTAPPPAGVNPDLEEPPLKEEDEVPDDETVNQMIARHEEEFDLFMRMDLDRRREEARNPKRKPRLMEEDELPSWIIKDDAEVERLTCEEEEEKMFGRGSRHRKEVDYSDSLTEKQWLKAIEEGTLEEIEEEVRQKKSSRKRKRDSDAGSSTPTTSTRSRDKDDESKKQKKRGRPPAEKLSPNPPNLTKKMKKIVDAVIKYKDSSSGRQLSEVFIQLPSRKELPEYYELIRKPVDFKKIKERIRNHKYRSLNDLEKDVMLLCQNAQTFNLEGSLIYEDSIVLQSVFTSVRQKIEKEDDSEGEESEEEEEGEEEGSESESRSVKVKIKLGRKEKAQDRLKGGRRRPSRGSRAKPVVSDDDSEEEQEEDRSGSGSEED
T1 sequence (P51531 whole entry, the tested form may be a part): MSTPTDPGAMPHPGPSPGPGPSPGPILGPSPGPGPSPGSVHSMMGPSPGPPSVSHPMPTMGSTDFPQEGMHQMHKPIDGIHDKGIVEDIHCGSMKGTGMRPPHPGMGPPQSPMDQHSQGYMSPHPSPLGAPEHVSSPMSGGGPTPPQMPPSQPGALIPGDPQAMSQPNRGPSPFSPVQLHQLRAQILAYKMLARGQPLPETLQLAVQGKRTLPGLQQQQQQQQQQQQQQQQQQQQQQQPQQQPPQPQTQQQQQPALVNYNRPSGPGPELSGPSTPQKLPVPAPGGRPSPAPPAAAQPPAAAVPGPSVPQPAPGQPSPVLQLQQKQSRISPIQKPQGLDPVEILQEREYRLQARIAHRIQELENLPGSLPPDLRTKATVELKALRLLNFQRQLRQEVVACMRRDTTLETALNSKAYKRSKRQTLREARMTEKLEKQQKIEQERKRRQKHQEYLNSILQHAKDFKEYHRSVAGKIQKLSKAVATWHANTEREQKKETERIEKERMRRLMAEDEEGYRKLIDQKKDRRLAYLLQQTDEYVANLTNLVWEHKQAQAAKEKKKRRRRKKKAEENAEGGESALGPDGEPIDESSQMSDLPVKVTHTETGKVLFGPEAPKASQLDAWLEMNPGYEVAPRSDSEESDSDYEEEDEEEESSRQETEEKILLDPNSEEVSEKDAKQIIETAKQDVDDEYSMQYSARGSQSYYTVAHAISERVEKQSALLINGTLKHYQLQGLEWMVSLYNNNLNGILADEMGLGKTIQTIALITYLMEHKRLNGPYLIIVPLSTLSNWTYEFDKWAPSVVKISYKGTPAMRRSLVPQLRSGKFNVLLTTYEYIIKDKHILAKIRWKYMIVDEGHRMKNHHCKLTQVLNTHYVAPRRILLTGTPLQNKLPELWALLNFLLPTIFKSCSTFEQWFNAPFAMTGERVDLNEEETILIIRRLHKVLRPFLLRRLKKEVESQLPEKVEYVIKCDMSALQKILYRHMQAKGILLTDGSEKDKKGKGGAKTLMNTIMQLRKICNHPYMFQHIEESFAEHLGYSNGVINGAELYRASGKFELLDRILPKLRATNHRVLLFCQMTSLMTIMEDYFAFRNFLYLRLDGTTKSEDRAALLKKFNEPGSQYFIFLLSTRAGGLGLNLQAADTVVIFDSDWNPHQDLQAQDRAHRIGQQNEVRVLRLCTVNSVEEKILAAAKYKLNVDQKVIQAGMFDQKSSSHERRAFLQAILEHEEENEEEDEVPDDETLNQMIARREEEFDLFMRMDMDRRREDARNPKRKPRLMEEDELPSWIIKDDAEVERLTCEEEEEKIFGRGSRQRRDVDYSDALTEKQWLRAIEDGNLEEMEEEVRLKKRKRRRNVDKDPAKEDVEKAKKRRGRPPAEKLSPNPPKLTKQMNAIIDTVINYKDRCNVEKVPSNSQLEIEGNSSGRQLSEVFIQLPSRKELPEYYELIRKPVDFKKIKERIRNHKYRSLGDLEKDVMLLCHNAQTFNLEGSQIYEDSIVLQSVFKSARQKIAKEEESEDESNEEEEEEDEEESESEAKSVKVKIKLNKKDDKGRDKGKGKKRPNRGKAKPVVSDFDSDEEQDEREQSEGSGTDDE

Turning to `Cc1ncsc1-c1ccc([C@H](C)NC(=O)[C@@H]2C[C@@H](O)CN2C(=O)[C@@H](c2cc(N3CCC(C(=O)N4CC(c5sc6nnc(-c7ccccc7O)cc6c5C)C4)CC3)no2)C(C)C)cc1` [Compound 10], in experiment [1], the “BRM HiBit Degradation Maximum (%)” value was “A (“A” indicates maximum degradation ≥ 75%)” and the DC50 is not below 10 nM. Besides, in experiment [2], the Dmax is less than 50% and the DC50 is not below 1000 nM.
For `Cc1cc([C@H](C(=O)N2C[C@H](O)C[C@H]2C(=O)NCc2ccc(-c3scnc3C)cc2OCCCN2CCC(c3sc4nnc(-c5ccccc5O)cc4c3C)CC2)C(C)C)on1` [Compound 57, (2S,4R)-4-hydroxy-N-(2-(3-(4-(3-(2-hydroxyphenyl)-5-methylthieno[2,3-c]pyridazin-6-yl)piperidin-1-yl)propoxy)-4-(4-methylthiazol-5-yl)benzyl)-1-((R)-3-methyl-2-(3-methylisoxazol-5-yl)butanoyl)pyrrolidine-2-carboxamide], in experiment [1], the “BRM HiBit Degradation Maximum (%)” value is recorded as “B (“B” indicates maximum degradation ≥ 50%)” and the DC50 was not below 10 nM. In addition, in experiment [2], the Dmax was less than 50% and the DC50 is not below 1000 nM.
For `Cc1ncsc1-c1ccc(CNC(=O)[C@H]2C[C@H](O)CN2C(=O)[C@H](NC(=O)CCC(=O)N2CC(c3sc4nnc(-c5ccccc5O)cc4c3C)C2)C(C)(C)C)cc1` [Compound 20], in that order: “C (“C” indicates maximum degradation < 50%)”, not below 1000 nM, less than 50% and not below 1000 nM.
For `Cc1ncsc1-c1ccc([C@H](C)NC(=O)[C@@H]2C[C@@H](O)CN2C(=O)[C@@H](c2cc(N3CCC(N4CCc5sc6nnc(-c7ccccc7O)cc6c5C4)CC3)no2)C(C)C)cc1` [Compound 70, (2S,4R)-4-hydroxy-1-((R)-2-(3-(4-(3-(2-hydroxyphenyl)-7,8-dihydropyrido[3′,4′:4,5]thieno[2,3-c]pyridazin-6(5H)-yl)piperidin-1-yl)isoxazol-5-yl)-3-methylbutanoyl)-N-((S)-1-(4-(4-methylthiazol-5-yl)phenyl)ethyl)pyrrolidine-2-carboxamide], in that order: “C (“C” indicates maximum degradation < 50%)”, not below 1000 nM, less than 50% and not below 1000 nM.
For `Cc1ncsc1-c1ccc([C@H](C)NC(=O)[C@@H]2C[C@@H](O)CN2C(=O)[C@@H](c2cc(OCCN3CC(Cc4csc5nnc(-c6ccccc6O)cc45)C3)no2)C(C)C)cc1` [Compound 111, (2S,4R)-4-hydroxy-1-((R)-2-(3-(2-(3-((3-(2-hydroxyphenyl)thieno[2,3-c]pyridazin-5-yl)methyl)azetidin-1-yl)ethoxy)isoxazol-5-yl)-3-methylbutanoyl)-N-((S)-1-(4-(4-methylthiazol-5-yl)phenyl)ethyl)pyrrolidine-2-carboxamide], in that order: “C (“C” indicates maximum degradation < 50%)”, not below 1000 nM, less than 50% and not below 1000 nM.
As to `Cc1ncsc1-c1ccc([C@H](C)NC(=O)[C@@H]2C[C@@H](O)CN2C(=O)[C@@H](c2cc(N3CCN(C(=O)[C@H]4CCc5sc6nnc(-c7ccccc7O)cc6c5C4)CC3)no2)C(C)C)cc1` [Compound 52, (2S,4R)-4-hydroxy-1-((R)-2-(3-(4-((S)-3-(2-hydroxyphenyl)-5,6,7,8-tetrahydrobenzo[4,5]thieno[2,3-c]pyridazine-6-carbonyl)piperazin-1-yl)isoxazol-5-yl)-3-methylbutanoyl)-N-((S)-1-(4-(4-methylthiazol-5-yl)phenyl)ethyl)pyrrolidine-2-carboxamide], in experiment [1], the “BRM HiBit Degradation Maximum (%)” value was “C (“C” indicates maximum degradation < 50%)” and the DC50 is not below 1000 nM. For the same molecule, in experiment [2], the Dmax is less than 50% and the DC50 is not below 1000 nM.
As to `Cc1ncsc1-c1ccc([C@H](C)NC(=O)[C@@H]2C[C@@H](O)CN2C(=O)[C@@H](c2cc(N3CCC(CN4CC(c5sc6nnc(-c7ccccc7O)cc6c5C)C4)CC3)no2)C(C)C)cc1` [Compound 108, (2S,4R)-4-hydroxy-1-((R)-2-(3-(4-((3-(3-(2-hydroxyphenyl)-5-methylthieno[2,3-c]pyridazin-6-yl)azetidin-1-yl)methyl)piperidin-1-yl)isoxazol-5-yl)-3-methylbutanoyl)-N-((S)-1-(4-(4-methylthiazol-5-yl)phenyl)ethyl)pyrrolidine-2-carboxamide], in experiment [1], the “BRM HiBit Degradation Maximum (%)” value was “A (“A” indicates maximum degradation ≥ 75%)” and the DC50 was not below 10 nM. In experiment [2], the Dmax is less than 50% and the DC50 is not below 1000 nM.
For `Cc1ncsc1-c1ccc(CNC(=O)[C@@H]2C[C@@H](O)CN2C(=O)[C@@H](NC(=O)CCCC(=O)N2CC(c3sc4nnc(-c5ccccc5O)cc4c3C)C2)C(C)(C)C)cc1` [Compound 19] the same measures were “A (“A” indicates maximum degradation ≥ 75%)”, not below 1000 nM, not below 75% and not below 1000 nM.
For `Cc1ncsc1-c1ccc([C@H](C)NC(=O)[C@@H]2C[C@@H](O)CN2C(=O)[C@@H](c2cc(N3CCC(CN4CC(c5cc6cc(-c7ccccc7O)nnc6s5)C4)CC3)no2)C(C)C)cc1` [Compound 7], in that order: “A (“A” indicates maximum degradation ≥ 75%)”, not below 10 nM, less than 50% and not below 1000 nM.
`Cc1ncsc1-c1ccc([C@@H](C)NC(=O)[C@H]2C[C@H](O)CN2C(=O)[C@H](c2cc(OCCN3CC(Cc4cc5cc(-c6ccccc6O)nnc5s4)C3)no2)C(C)C)cc1` [Compound 23]: in experiment [1], the “BRM HiBit Degradation Maximum (%)” value is on record as “B (“B” indicates maximum degradation ≥ 50%)” and the DC50 was not below 100 nM. Also, in experiment [2], the Dmax was less than 50% and the DC50 is not below 1000 nM.
For `Cc1ncsc1-c1ccc([C@H](C)NC(=O)[C@@H]2C[C@@H](O)CN2C(=O)[C@@H](c2cc(OCC(=O)N3CCC(c4sc5nnc(-c6ccccc6O)cc5c4C)CC3)no2)C(C)C)cc1` [Compound 93, (2S,4R)-4-hydroxy-1-((R)-2-(3-(2-(4-(3-(2-hydroxyphenyl)-5-methylthieno[2,3-c]pyridazin-6-yl)piperidin-1-yl)-2-oxoethoxy)isoxazol-5-yl)-3-methylbutanoyl)-N-((S)-1-(4-(4-methylthiazol-5-yl)phenyl)ethyl)pyrrolidine-2-carboxamide], in that order: “A (“A” indicates maximum degradation ≥ 75%)”, not below 10 nM, less than 50% and not below 1000 nM.
For `Cc1ncsc1-c1ccc([C@H](C)NC(=O)[C@@H]2C[C@@H](O)CN2C(=O)[C@@H](c2cc(OCCN3CC(c4cc5cc(-c6ccccc6O)nnc5s4)C3)no2)C(C)C)cc1` [Compound 1, (2S,4R)-4-hydroxy-1-((R)-2-(3-(2-(3-(3-(2-hydroxyphenyl)thieno[2,3-c]pyridazin-6-yl)azetidin-1-yl)ethoxy)isoxazol-5-yl)-3-methylbutanoyl)-N—((S)-1-(4-(4-methylthiazol-5-yl)phenyl)ethyl)pyrrolidine-2-carboxamide], in that order: “B (“B” indicates maximum degradation ≥ 50%)”, not below 10 nM, less than 50% and not below 1000 nM.
For `Cc1ncsc1-c1ccc([C@H](C)NC(=O)[C@@H]2C[C@@H](O)CN2C(=O)[C@@H](c2cc(OCCCN3CC(c4cc5nnc(-c6ccccc6O)cc5s4)C3)no2)C(C)C)cc1` [Compound 104, (2S,4R)-4-hydroxy-1-((R)-2-(3-(3-(3-(3-(2-hydroxyphenyl)thieno[3,2-c]pyridazin-6-yl)azetidin-1-yl)propoxy)isoxazol-5-yl)-3-methylbutanoyl)-N-((S)-1-(4-(4-methylthiazol-5-yl)phenyl)ethyl)pyrrolidine-2-carboxamide] the same measures were “B (“B” indicates maximum degradation ≥ 50%)”, not below 10 nM, less than 50% and not below 1000 nM.
As for `Cc1ncsc1-c1ccc(CNC(=O)[C@@H]2C[C@@H](O)CN2C(=O)[C@@H](NC(=O)C2(F)CC2)C(C)(C)C)c(OCC(=O)N2CCC(c3cc4nnc(-c5ccccc5O)cc4s3)CC2)c1` [Compound 75, (2S,4R)-1-((S)-2-(1-fluorocyclopropane-1-carboxamido)-3,3-dimethylbutanoyl)-4-hydroxy-N-(2-(2-(4-(3-(2-hydroxyphenyl)thieno[3,2-c]pyridazin-6-yl)piperidin-1-yl)-2-oxoethoxy)-4-(4-methylthiazol-5-yl)benzyl)pyrrolidine-2-carboxamide], in experiment [1], the “BRM HiBit Degradation Maximum (%)” value is recorded as “C (“C” indicates maximum degradation < 50%)” and the DC50 was not below 1000 nM. For the same molecule, in experiment [2], the Dmax is less than 50% and the DC50 was not below 1000 nM.
